Source: ChEMBL document CHEMBL1130777, “L-374,087, an efficacious, orally bioavailable, pyridinone acetamide thrombin inhibitor” (Bioorg Med Chem Lett, 1998)

Legend:
Prothrombin = Prothrombin (Homo sapiens, UniProt P00734); assay: Binding affinity towards thrombin was evaluated
Serine protease 1 = Serine protease 1 (Homo sapiens, UniProt P07477); assay: Binding affinity towards trypsin was evaluated
[1] = Compound was evaluated for the half life period after iv administration in cynomolgus monkey; assay type: ADME, organism-based; settings: cercopithecidae, in vivo
[2] = Oral bioavailability after 5 mg/kg in cynomolgus monkey was determined; assay type: ADME, organism-based; settings: cercopithecidae, in vivo, read-out: Bioavailabiility
[3] = Compound was evaluated for the oral bioavailability after oral administration in dog.; assay type: ADME, organism-based, Canis lupus familiaris; settings: in vivo, read-out: Bioavailabiility
[4] = Maximum concentration was evaluated after 75 min after administration in dog; assay type: ADME, organism-based, Canis lupus familiaris; settings: in vivo
[5] = Compound was evaluated for the half life period after iv administration in Beagle dog.; assay type: ADME, organism-based, Canis lupus familiaris; settings: in vivo
Rattus norvegicus [6] = assay: Incidence of occlusion was determined in the rat ferric chloride arterial thrombosis model at 10 dose ug/kg/min after intravenous administration; 0/9; assay type: functional
Rattus norvegicus [7] = assay: Incidence of occlusion was determined in the rat ferric chloride arterial thrombosis model at 3 dose ug/kg/min after intravenous administration; 2/6; assay type: functional
Rattus norvegicus [8] = assay: Incidence of occlusion was determined in the rat ferric chloride arterial thrombosis model at 5 dose ug/kg/min after intravenous administration; 1/6; assay type: functional
Rattus norvegicus [9] = assay: Incidence of occlusion was determined in the rat ferric chloride arterial thrombosis model at 1 dose ug/kg/min after intravenous administration; 5/6; assay type: functional

Chain of Serine protease 1 (P07477 whole entry): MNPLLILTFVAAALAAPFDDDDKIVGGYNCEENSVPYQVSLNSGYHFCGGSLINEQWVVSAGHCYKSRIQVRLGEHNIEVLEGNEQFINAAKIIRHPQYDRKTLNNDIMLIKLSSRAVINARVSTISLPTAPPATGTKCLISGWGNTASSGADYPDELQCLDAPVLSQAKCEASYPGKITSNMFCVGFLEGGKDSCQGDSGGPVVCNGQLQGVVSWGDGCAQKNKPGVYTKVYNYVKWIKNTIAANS

| SMILES | Ki (Prothrombin) [nM] | Ki (Serine protease 1) [nM] | also measured |
| --- | --- | --- | --- |
| Cc1nc(N)ccc1CNC(=O)Cn1c(C)ccc(NCCc2ccccc2)c1=O | 2.3 | 4300 |  |
| Cc1cc(N)nc(C)c1CNC(=O)Cn1c(C)ccc(NS(=O)(=O)Cc2ccccc2)c1=O | 0.33 | 2100 |  |
| Cc1cc(N)ncc1CNC(=O)Cn1c(C)ccc(NS(=O)(=O)Cc2ccccc2)c1=O | 12 | 1500 |  |
| Cc1ccc(NS(=O)(=O)Cc2ccccc2)c(=O)n1CC(=O)NCc1ccc(N)nc1 | 11 | 3000 |  |
| Cc1nc(N)ccc1CNC(=O)Cn1cccc(NS(=O)(=O)Cc2ccccc2)c1=O | 26 | 20000 |  |
| Cc1nc(N)ccc1CNC(=O)Cn1c(C)ccc(NS(=O)(=O)Cc2ccccc2)c1=O.Cl |  |  | half-life [1]: 2.42 h; bioavailability [2]: 19%; bioavailability [3]: 44%; Cmax [4]: 990 nM; half-life [5]: 1.5 h |
| Cc1nc(N)ccc1CNC(=O)Cn1c(C)ccc(NS(=O)(=O)Cc2ccccc2)c1=O [L-374087] |  |  | Incidence of occlusion (Rattus norvegicus [6]): 0; Incidence of occlusion (Rattus norvegicus [7]): 2; Incidence of occlusion (Rattus norvegicus [8]): 1; Incidence of occlusion (Rattus norvegicus [9]): 5 |
